{
  "source": "patent US20110206650A1",
  "about": "“Probiotic Formulations” (BRACCO IMAGING S.P.A., priority 2008, published 2011)",
  "key": {"[1]": {"system": "Staphylococcus epidermidis", "conditions": "Ref. 22; cited from earlier work"}, "[2]": {"experiment": "acute oral semilethal dose (LD50) in mice", "conditions": "mouse, in vivo", "source_text": "Thus, DTPA is a safe oral drug, representing a preferred iron chelator for the compositions of the present invention.\nIt is therefore a further preferred iron chelator for the compositions of the invention."}, "mice": {"system": "mice", "conditions": "cited from earlier work"}, "[3]": {"system": "Corynebacterium xerosis ATCC 7711", "conditions": "Ref. 23; cited from earlier work"}, "[4]": {"conditions": "in vivo; cited from earlier work"}},
  "data": [
    {"smiles": "O=C(O)CN(CC(=O)O)[C@@H]1CCCC[C@H]1N(CC(=O)O)CC(=O)O", "note": "(relative stereo) [CDTA, trans-1,2-diaminocyclohexane-N,N,N′,N′-tetraacetic acid]", "values": [
      {"measurement": "inhibition of growth of Staphylococcus epidermidis", "setting": "[1]", "result": "inhibit the growth"}
    ]},
    {"smiles": "O=C(O)CN(CCN(CC(=O)O)CC(=O)O)CCN(CC(=O)O)C(COCc1ccccc1)C(=O)O", "note": "(centres unmarked) [BOPTA, 4-carboxy-5,8,11-tris(carboxymethyl)-1-phenyl-2-oxa-5,8,11-triazatridecan-13-oic acid]", "values": [
      {"measurement": "LD50", "setting": "[2]", "result": 8400, "unit": "µmol/kg"}
    ]},
    {"smiles": "O=C(O)CN(CCN(CC(=O)O)CC(=O)O)CCN(CC(=O)O)CC(=O)O", "note": "[DTPA, diethylenetriaminepentaacetic acid]", "values": [
      {"measurement": "acute oral semilethal dose (LD50)", "setting": "mice", "result": 3500, "unit": "mg/kg"},
      {"measurement": "inhibition of growth of Staphylococcus epidermidis", "setting": "[1]", "result": "inhibit the growth"}
    ]},
    {"smiles": "O=C(O)CN(CCN(CC(=O)O)CC(=O)O)CC(=O)O", "note": "[EDTA, ethylenediaminetetraacetic acid]", "values": [
      {"measurement": "inhibition of growth of Staphylococcus epidermidis", "setting": "[1]", "result": "inhibit the growth"}
    ]},
    {"smiles": "O=C(O)C[C@H](NCCN[C@@H](CC(=O)O)C(=O)O)C(=O)O", "note": "[R,S-EDDS, R,S-ethylenediaminedisuccinic acid]", "values": [
      {"measurement": "inhibition of growth of Corynebacterium xerosis ATCC 7711", "setting": "[3]", "result": "inhibit growth"}
    ]},
    {"smiles": "O=C(O)CN(CCN(CCN(CC(=O)O)CC(=O)O)CC(=O)O)CCN(CC(=O)O)CC(=O)O", "note": "[TTHA, triethylene-tetraaminehexaacetic acid]", "values": [
      {"measurement": "inhibition of growth of Staphylococcus epidermidis", "setting": "[1]", "result": "inhibit the growth"}
    ]},
    {"smiles": "O=C([O-])CN(CCN(CC(=O)[O-])CC(=O)[O-])CCN(CC(=O)[O-])CC(=O)[O-].[H+].[H+].[Na+].[Na+].[Na+]", "note": "[trisodium pentetate]", "values": [
      {"measurement": "safety of oral dose", "setting": "[4]", "result": "proven to be safe"}
    ]}
  ]
}
